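Where inhibition never reached the appropriate level, the endpoint shown equals the highest concentration tested. Otherwise, values were interpolated linearly from a five-concentration, 48-hour dose response in 96-well plates. At the GI50, growth is halved. TGI: total growth inhibition.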
What was measured:
Test in all cases: inhibition of tumour cell growth, NCI panel, 48 h
[1] = system: A498 renal
[2] = system: M14 melanoma
[3] = system: SK-OV-3 ovarian
[4] = system: OVCAR-3 ovarian
[5] = system: NCI-H23 lung
[6] = system: ACHN renal
[7] = system: MOLT-4 leukemia
[8] = system: MCF7 breast
[9] = system: HS 578T breast
[10] = system: T-47D breast

Compound	TGI [1] [µM]	TGI [2] [µM]	TGI [3] [µM]	TGI [4] [µM]	TGI [5] [µM]	TGI [6] [µM]	TGI [7] [µM]	TGI [8] [µM]	TGI [9] [µM]	TGI [10] [µM]	GI50 [1] [µM]	GI50 [2] [µM]	GI50 [3] [µM]	GI50 [4] [µM]	GI50 [5] [µM]	GI50 [6] [µM]	GI50 [7] [µM]	GI50 [8] [µM]	GI50 [9] [µM]	GI50 [10] [µM]
NC(Cc1ccnnc1)C(=O)O (centres undefined)	> 100	> 100	> 100	> 100	> 100	> 100	> 100	> 100	> 100	> 100	–	–	–	–	–	–	–	–	–	–
O=C1c2ccn(CCCCN3CCCCC3)c2C(=O)c2c1c(O)c1ccccc1c2O	35.1	9.7	43.4	41.9	> 48.3	38.5	> 100	> 62.3	65.1	> 59.6	15.3	2.46	15.8	10.5	23.1	18.7	3.49	14.2	27	23.6
CNC(=O)OC1C(O[C@H]2C[C@H]3[C@@H]4CC=C5C[C@@H](O)CC[C@]5(C)[C@H]4CC[C@]3(C)[C@H]2[C@H](C)C(=O)CCC(C)C)OCC(O)C1OC1OCC(O)C(O)C1OC(=O)c1ccc(OC)cc1 (some centres undefined)	0.0205	0.0757	1.31	6.1	4.59	5.13	0.0242	2.87	0.0584	3.69	0.00446	0.0137	0.0177	1.03	0.134	0.263	0.00824	0.0149	< 0.00275	0.035
Cc1ccc(C2C3=C(N=c4s/c(=C/c5ccc(Br)cc5)c(=O)n42)c2ccc4ccccc4c2OCC3)cc1 (centres undefined)	> 100	> 100	> 100	> 100	> 100	> 100	> 100	> 100	> 100	> 100	> 100	> 100	> 100	> 100	> 100	> 100	> 100	> 100	> 100	> 100
C[C@]12C3CC[C@@]4(CO)C[C@]3(CCC1[C@](C)(C(=O)O)CC[C@@H]2O)CC4=O (some centres undefined)	> 100	> 100	> 100	> 100	> 100	> 100	> 100	> 100	> 100	> 100	> 100	> 100	> 100	> 100	> 100	> 100	> 100	> 100	> 100	> 100
CCc1c(O)c2c(c(O)c1C(C)=O)C(=O)c1c(cc(O)c(C(=O)O)c1C(=O)O)C2=O	> 100	> 100	> 100	> 100	> 100	> 100	> 100	> 100	> 100	> 100	–	–	–	–	–	–	–	–	–	–
O=S(=O)(O)/C(=C\c1ccccc1)c1ccccc1 (tested in a mixture with another compound)	> 100	> 100	> 100	> 100	> 100	> 100	> 100	> 100	> 100	> 100	–	–	–	–	–	–	–	–	–	–
COc1ccc(-c2nnc(N3CCN(C(=O)CN4CCN(c5ccc(Cl)cc5)CC4)CC3)nc2-c2ccc(OC)cc2)cc1	72.2	> 100	> 100	> 100	> 100	> 100	> 100	> 100	> 100	74.8	27.7	35.8	36.6	28.7	24.4	22.9	6.53	5.82	23.5	4.51
Cc1ccc2c(c1)O/C(=C\c1ccc([N+](=O)[O-])o1)C2=O	18.6	4.07	> 100	2.86	4.82	2.53	7.52	2.01	6.25	4.77	3.77	1.75	4.66	1.53	1.94	1.19	2.35	0.432	2.09	1.86
O=C(Nc1ccccc1O)c1ccc(CNC(=O)c2sccc2Nc2ccnc(C(F)(F)F)c2)cc1	9.7	27.8	37.3	21.6	41.2	26.5	32.7	41.8	> 100	29.9	2.62	7.87	10.6	7.48	5.73	4.95	1.78	2.65	12.7	3.45
COc1ccc(Cl)cc1NC(=O)c1cccc([N+](=O)[O-])c1O	35.4	> 100	> 77.9	33	40.7	> 70.4	> 100	66.2	70.2	> 100	–	–	–	–	–	–	–	–	–	–
O=C(O)c1cc(Cc2ccc(O)c(C(=O)O)c2)ccc1O (tested in a mixture with another compound)	21.9	21.8	24.6	22.3	20	24.8	> 100	12.5	40.4	13.2	5.68	5.28	11.4	9.75	5.31	11	2.66	2.53	3.78	2.67
CCCCCCC#CC#Cc1cccc(=O)o1	29.1	2.8	> 70	4.8	2.25	3.96	> 21	22.3	6.49	57.2	14.9	0.878	23.8	2.04	0.848	1.84	2.31	2.22	1.99	16.6
Oc1c(I)cc(-c2nc3ccccc3s2)cc1CN(Cc1ccccn1)Cc1ccccn1	4.81	13.1	> 100	11.7	> 100	3.37	> 100	35	93	83.3	0.484	0.357	0.437	0.534	0.866	0.286	0.327	0.34	1.61	0.666
COc1ccc(CC(NC(=O)[C@H](C)NC(=O)CN2CCOCC2)C(=O)N[C@@H](Cc2ccccc2)C(=O)[C@@]2(C)CO2)cc1 (some centres undefined)	0.893	2.5	1.77	0.421	0.695	> 33.5	–	> 41.6	2.12	0.482	0.224	0.284	0.392	0.198	0.196	0.801	0.0572	0.129	0.286	0.208
COc1cc(C2=NN(c3ccc(S(N)(=O)=O)cc3)C(c3ccc(Cl)cc3)C2)cc(OC)c1OC (centres undefined)	7.68	> 100	> 100	> 100	> 100	9.27	> 100	> 100	> 100	14.7	1.93	4.8	6.91	4.68	5.72	2.62	4.81	3.36	3.58	1.74
NCCP(=O)(O)O	> 100	> 100	> 100	> 100	> 100	> 100	> 100	> 100	> 100	> 100	–	–	–	–	–	–	–	–	–	–
COC(=O)C1(C2CC/C(C)=C/CC/C(C)=C/CC[C@@]3(C)O[C@@H]3C2)CC1 (some centres undefined)	> 100	> 72.2	> 100	> 100	> 100	> 62.2	> 100	> 100	> 100	> 100	> 100	37.5	> 100	62.9	46.1	> 41.3	29.3	51.1	> 91.2	> 93
O=C(Nc1cccc(O)c1)c1cccc(NC2=C(Cl)C(=O)N(Cc3ccccc3)C2=O)c1	28.9	40	34.6	23	35.8	33.1	> 100	59.9	43.5	60.5	13.2	20.5	18.6	8.16	20.6	17.9	1.04	23.4	12.7	23.5
CC(C)(C)[Si](C)(C)OCC1C=CC(n2cnc3c(N)ncnc32)O1 (centres undefined)	> 100	66.9	> 100	> 67.9	> 100	> 100	44.4	> 75.4	> 100	> 100	–	–	–	–	–	–	–	–	–	–

Source: PubChem BioAssay (NCI)
